Biological target: T1, Human M4 (Homo sapiens, UniProt P08173)
T1 construct: Human or rat M4 cDNA, along with the chimeric G protein Gqi5, were transfected into Chinese hamster ovary (CHO-K1) cells; expressed in transfected cells; host or cells: CHO-K1 (Chinese hamster ovary, ATCC), stably co-expressing Gqi5
T1 sequence (P08173 1-479): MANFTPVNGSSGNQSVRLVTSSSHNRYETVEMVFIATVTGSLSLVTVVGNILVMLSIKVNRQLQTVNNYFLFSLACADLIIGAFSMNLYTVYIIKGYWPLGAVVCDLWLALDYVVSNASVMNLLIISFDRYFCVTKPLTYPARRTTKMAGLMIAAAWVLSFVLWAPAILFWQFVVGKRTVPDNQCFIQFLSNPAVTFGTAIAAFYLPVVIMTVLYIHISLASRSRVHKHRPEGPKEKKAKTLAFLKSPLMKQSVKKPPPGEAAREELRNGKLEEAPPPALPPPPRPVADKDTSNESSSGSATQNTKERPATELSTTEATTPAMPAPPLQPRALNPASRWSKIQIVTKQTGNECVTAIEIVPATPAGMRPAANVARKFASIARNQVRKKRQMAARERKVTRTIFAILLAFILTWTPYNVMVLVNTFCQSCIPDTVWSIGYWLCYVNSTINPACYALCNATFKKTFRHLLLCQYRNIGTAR
Assay: mAChR M4 cell-based functional assay (calcium flux, decrease of EC80 acetylcholine response)
Conditions: for remaining activity at 30 µM: % ACh maximum at 30 μM, read-out: Human M4 Emin; for IC50: M4/Gqi5/CHO-K1 cells, decrease of response to EC80 acetylcholine
Method in brief: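 CHO-K1 cells stably co-expressing M4 and chimeric Gqi5, loaded with Fluo-4 AM; calcium flux read on FDSS. Compound added at 2 s, EC20 acetylcholine at 143 s, EC80 acetylcholine at 268 s. IC50 from concentration-dependent decrease of the EC80 response, four-parameter logistic fit; 10-point 1:3 titrations.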

Compound	remaining activity at 30 µM [%]	IC50 [nM]
Cc1ccc(F)cc1-c1cc(C#N)c(N[C@H]2C[C@@H]3CN(C[C@H]4COCCO4)C[C@@H]3C2)nn1 [Example 149, 3-(((3aR,5s,6aS)-2-(((S)-1,4-dioxan-2-yl)methyl)octahydro-cyclopenta[c]pyrrol-5-yl)amino)-6-(5-fluoro-2-methylphenyl)pyridazine-4-carbonitrile]	2	0.4
Cc1ccc(F)cc1-c1cc(C#N)c(N[C@H]2C[C@@H]3CN(C[C@@H]4COCCO4)C[C@@H]3C2)nn1 [Example 150, 3-(((3aR,5s,6aS)-2-(((R)-1,4-dioxan-2-yl)methyl)octahydro-cyclopenta[c]pyrrol-5-yl)amino)-6-(5-fluoro-2-methylphenyl)pyridazine-4-carbonitrile]	3	30.5
Cc1ccc(F)cc1-c1cc(C#N)c(N[C@H]2C[C@@H]3CN(C[C@@H]4CCOC4)C[C@@H]3C2)nn1 [Example 151, 6-(5-fluoro-2-methylphenyl)-3-(((3aR,5s,6aS)-2-(((S)-tetrahydrofuran-3-yl)methyl)octahydro-cyclopenta[c]pyrrol-5-yl)amino)pyridazine-4-carbonitrile]	7	105
Cc1ccc(F)cc1-c1cc(C#N)c(N[C@H]2C[C@@H]3CN(C[C@H]4CCOC4)C[C@@H]3C2)nn1 [Example 152, 6-(5-fluoro-2-methylphenyl)-3-(((3aR,5s,6aS)-2-(((R)-tetrahydrofuran-3-yl)methyl)octahydro-cyclopenta[c]pyrrol-5-yl)amino)pyridazine-4-carbonitrile]	6	14.9
Cn1cc2cc(-c3cc(C#N)c(N[C@H]4C[C@@H]5CN(CC6CCOCC6)C[C@@H]5C4)nn3)ccc2n1 [Example 153, 6-(2-methyl-2H-indazol-5-yl)-3-(((3aR,5s,6aS)-2-((tetrahydro-2H-pyran-4-yl)methyl)octahydro-cyclopenta[c]pyrrol-5-yl)amino)pyridazine-4-carbonitrile]	11	9.7
Cn1cc2cc(-c3cc(C#N)c(N[C@H]4C[C@@H]5CN(C[C@@H]6CCOC6)C[C@@H]5C4)nn3)ccc2n1 [Example 154, 6-(2-methyl-2H-indazol-5-yl)-3-(((3aR,5s,6aS)-2-(((S)-tetrahydrofuran-3-yl)methyl)octahydro-cyclopenta[c]pyrrol-5-yl)amino)pyridazine-4-carbonitrile]	15	87.8
Cn1cc2cc(-c3cc(C#N)c(N[C@H]4C[C@@H]5CN(C[C@H]6CCOC6)C[C@@H]5C4)nn3)ccc2n1 [Example 155, 6-(2-methyl-2H-indazol-5-yl)-3-(((3aR,5s,6aS)-2-(((R)-tetrahydrofuran-3-yl)methyl)octahydro-cyclopenta[c]pyrrol-5-yl)amino)pyridazine-4-carbonitrile]	5	103
Cn1cc2cc(-c3cc(C#N)c(N[C@H]4C[C@@H]5CN(C[C@H]6COCCO6)C[C@@H]5C4)nn3)ccc2n1 [Example 156, 3-(((3aR,5s,6aS)-2-(((S)-1,4-dioxan-2-yl)methyl)octahydro-cyclopenta[c]pyrrol-5-yl)amino)-6-(2-methyl-2H-indazol-5-yl)pyridazine-4-carbonitrile]	12	10.1
Cn1cc2cc(-c3cc(C#N)c(N[C@H]4C[C@@H]5CN(C[C@@H]6COCCO6)C[C@@H]5C4)nn3)ccc2n1 [Example 157, 3-(((3aR,5s,6aS)-2-(((R)-1,4-dioxan-2-yl)methyl)octahydro-cyclopenta[c]pyrrol-5-yl)amino)-6-(2-methyl-2H-indazol-5-yl)pyridazine-4-carbonitrile]	5	54.9
